# Molecular target: T1, Inhibitor of nuclear factor kappa-B kinase subunit epsilon (Homo sapiens, UniProt Q14164)
# T1 sequence (Q14164 whole entry): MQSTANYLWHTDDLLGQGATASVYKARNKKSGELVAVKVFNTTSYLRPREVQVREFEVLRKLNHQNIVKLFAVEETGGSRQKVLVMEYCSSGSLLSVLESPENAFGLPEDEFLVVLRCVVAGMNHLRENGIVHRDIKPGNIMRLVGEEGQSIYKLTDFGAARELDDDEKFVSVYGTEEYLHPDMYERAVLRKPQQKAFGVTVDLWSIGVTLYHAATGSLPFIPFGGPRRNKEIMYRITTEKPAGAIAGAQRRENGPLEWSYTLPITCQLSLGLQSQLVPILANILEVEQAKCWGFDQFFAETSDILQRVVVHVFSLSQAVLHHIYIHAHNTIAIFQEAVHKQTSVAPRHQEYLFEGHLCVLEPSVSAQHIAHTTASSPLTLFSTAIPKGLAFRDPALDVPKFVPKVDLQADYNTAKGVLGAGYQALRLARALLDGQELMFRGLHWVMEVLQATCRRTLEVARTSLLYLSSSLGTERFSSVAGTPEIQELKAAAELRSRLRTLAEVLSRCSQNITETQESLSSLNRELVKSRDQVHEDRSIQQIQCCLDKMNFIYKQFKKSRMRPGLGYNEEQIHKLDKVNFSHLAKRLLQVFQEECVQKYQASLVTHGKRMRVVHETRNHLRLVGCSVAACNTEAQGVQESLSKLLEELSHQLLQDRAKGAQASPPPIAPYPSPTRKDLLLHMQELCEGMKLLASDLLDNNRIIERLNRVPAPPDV
row,Compound,Kd
1,CCOc1cc2ncc(C#N)c(Nc3ccc(F)c(Cl)c3)c2cc1NC(=O)/C=C/CN(C)C [PELITINIB],> 10 µM
2,Oc1ccc(-c2nc(-c3ccncc3)c(-c3ccc(F)cc3)[nH]2)cc1 [SB-202190],> 10 µM
3,COCC(=O)NC/C=C/c1ccc2ncnc(Nc3ccc(Oc4ccc(C)nc4)c(C)c3)c2c1 [CP-724714],> 10 µM
4,NC(=O)c1ccc(-c2nc(-c3ccc4c(c3)OCO4)c(-c3ccccn3)[nH]2)cc1 [SB-431542],> 10 µM

# Molecular target: Casein kinase I isoform gamma-1 (Homo sapiens, UniProt Q9HCP0)
row,Compound,Kd
1,CCOc1cc2ncc(C#N)c(Nc3ccc(F)c(Cl)c3)c2cc1NC(=O)/C=C/CN(C)C [PELITINIB],> 10 µM
2,Oc1ccc(-c2nc(-c3ccncc3)c(-c3ccc(F)cc3)[nH]2)cc1 [SB-202190],> 10 µM
3,COCC(=O)NC/C=C/c1ccc2ncnc(Nc3ccc(Oc4ccc(C)nc4)c(C)c3)c2c1 [CP-724714],> 10 µM

# Molecular target: Bone morphogenetic protein receptor type-1A (Homo sapiens, UniProt P36894)
row,Compound,Kd
1,CCOc1cc2ncc(C#N)c(Nc3ccc(F)c(Cl)c3)c2cc1NC(=O)/C=C/CN(C)C [PELITINIB],> 10 µM
2,Nc1nc(Nc2ccc(S(N)(=O)=O)cc2)nn1C(=O)c1c(F)cccc1F [JNJ-7706621],> 10 µM
3,Oc1ccc(-c2nc(-c3ccncc3)c(-c3ccc(F)cc3)[nH]2)cc1 [SB-202190],> 10 µM
4,COCC(=O)NC/C=C/c1ccc2ncnc(Nc3ccc(Oc4ccc(C)nc4)c(C)c3)c2c1 [CP-724714],> 10 µM
5,NC(=O)c1ccc(-c2nc(-c3ccc4c(c3)OCO4)c(-c3ccccn3)[nH]2)cc1 [SB-431542],> 10 µM

# Molecular target: T2, Dual specificity mitogen-activated protein kinase kinase 4 (Homo sapiens, UniProt P45985)
# T2 sequence (P45985 whole entry): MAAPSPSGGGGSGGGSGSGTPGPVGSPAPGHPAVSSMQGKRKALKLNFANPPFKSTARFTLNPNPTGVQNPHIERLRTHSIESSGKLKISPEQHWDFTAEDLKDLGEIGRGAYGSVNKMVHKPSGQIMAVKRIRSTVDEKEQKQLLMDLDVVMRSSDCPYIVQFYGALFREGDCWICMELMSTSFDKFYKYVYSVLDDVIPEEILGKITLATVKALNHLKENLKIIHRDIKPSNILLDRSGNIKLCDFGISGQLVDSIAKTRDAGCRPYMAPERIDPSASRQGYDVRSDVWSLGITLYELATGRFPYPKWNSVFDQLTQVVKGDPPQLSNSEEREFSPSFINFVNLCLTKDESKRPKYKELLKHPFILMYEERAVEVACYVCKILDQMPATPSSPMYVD
row,Compound,Kd
1,CCOc1cc2ncc(C#N)c(Nc3ccc(F)c(Cl)c3)c2cc1NC(=O)/C=C/CN(C)C [PELITINIB],> 10 µM
2,Oc1ccc(-c2nc(-c3ccncc3)c(-c3ccc(F)cc3)[nH]2)cc1 [SB-202190],> 10 µM
3,COCC(=O)NC/C=C/c1ccc2ncnc(Nc3ccc(Oc4ccc(C)nc4)c(C)c3)c2c1 [CP-724714],> 10 µM
4,NC(=O)c1ccc(-c2nc(-c3ccc4c(c3)OCO4)c(-c3ccccn3)[nH]2)cc1 [SB-431542],> 10 µM
5,CCN1CCN(Cc2ccc(NC(=O)Nc3ccc(Oc4cc(NC)ncn4)cc3)cc2C(F)(F)F)CC1 [AST-487],> 10 µM

# Molecular target: Proto-oncogene tyrosine-protein kinase Src (Homo sapiens, UniProt P12931)
row,Compound,Kd
1,Nc1nc(Nc2ccc(S(N)(=O)=O)cc2)nn1C(=O)c1c(F)cccc1F [JNJ-7706621],> 10 µM
2,Oc1ccc(-c2nc(-c3ccncc3)c(-c3ccc(F)cc3)[nH]2)cc1 [SB-202190],> 10 µM
3,COCC(=O)NC/C=C/c1ccc2ncnc(Nc3ccc(Oc4ccc(C)nc4)c(C)c3)c2c1 [CP-724714],> 10 µM
4,NC(=O)c1ccc(-c2nc(-c3ccc4c(c3)OCO4)c(-c3ccccn3)[nH]2)cc1 [SB-431542],> 10 µM

# Molecular target: T3, Mitogen-activated protein kinase 12 (Homo sapiens, UniProt P53778)
# T3 sequence (P53778 whole entry): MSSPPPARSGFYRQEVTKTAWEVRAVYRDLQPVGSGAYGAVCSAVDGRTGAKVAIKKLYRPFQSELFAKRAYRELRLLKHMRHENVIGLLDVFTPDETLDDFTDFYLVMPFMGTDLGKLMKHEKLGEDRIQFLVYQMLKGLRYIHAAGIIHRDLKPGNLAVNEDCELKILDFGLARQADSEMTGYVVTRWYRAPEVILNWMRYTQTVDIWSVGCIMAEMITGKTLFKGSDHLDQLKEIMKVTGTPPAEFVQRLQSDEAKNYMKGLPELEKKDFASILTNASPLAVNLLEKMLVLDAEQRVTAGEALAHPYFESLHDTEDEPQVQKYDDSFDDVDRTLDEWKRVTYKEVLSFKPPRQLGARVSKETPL
row,Compound,Kd
1,CCOc1cc2ncc(C#N)c(Nc3ccc(F)c(Cl)c3)c2cc1NC(=O)/C=C/CN(C)C [PELITINIB],> 10 µM
2,Nc1nc(Nc2ccc(S(N)(=O)=O)cc2)nn1C(=O)c1c(F)cccc1F [JNJ-7706621],> 10 µM
3,COCC(=O)NC/C=C/c1ccc2ncnc(Nc3ccc(Oc4ccc(C)nc4)c(C)c3)c2c1 [CP-724714],> 10 µM
4,NC(=O)c1ccc(-c2nc(-c3ccc4c(c3)OCO4)c(-c3ccccn3)[nH]2)cc1 [SB-431542],> 10 µM

# Molecular target: Serine/threonine-protein kinase PLK1 (Homo sapiens, UniProt P53350)
row,Compound,Kd
1,CCOc1cc2ncc(C#N)c(Nc3ccc(F)c(Cl)c3)c2cc1NC(=O)/C=C/CN(C)C [PELITINIB],> 10 µM
2,Nc1nc(Nc2ccc(S(N)(=O)=O)cc2)nn1C(=O)c1c(F)cccc1F [JNJ-7706621],5 µM
3,Oc1ccc(-c2nc(-c3ccncc3)c(-c3ccc(F)cc3)[nH]2)cc1 [SB-202190],> 10 µM
4,COCC(=O)NC/C=C/c1ccc2ncnc(Nc3ccc(Oc4ccc(C)nc4)c(C)c3)c2c1 [CP-724714],> 10 µM
5,NC(=O)c1ccc(-c2nc(-c3ccc4c(c3)OCO4)c(-c3ccccn3)[nH]2)cc1 [SB-431542],> 10 µM

# Molecular target: Myosin-IIIa (Homo sapiens, UniProt Q8NEV4)
row,Compound,Kd
1,CCOc1cc2ncc(C#N)c(Nc3ccc(F)c(Cl)c3)c2cc1NC(=O)/C=C/CN(C)C [PELITINIB],> 10 µM
2,Nc1nc(Nc2ccc(S(N)(=O)=O)cc2)nn1C(=O)c1c(F)cccc1F [JNJ-7706621],> 10 µM
3,Oc1ccc(-c2nc(-c3ccncc3)c(-c3ccc(F)cc3)[nH]2)cc1 [SB-202190],> 10 µM
4,COCC(=O)NC/C=C/c1ccc2ncnc(Nc3ccc(Oc4ccc(C)nc4)c(C)c3)c2c1 [CP-724714],> 10 µM
5,NC(=O)c1ccc(-c2nc(-c3ccc4c(c3)OCO4)c(-c3ccccn3)[nH]2)cc1 [SB-431542],> 10 µM

# Molecular target: ALK tyrosine kinase receptor (Homo sapiens, UniProt Q9UM73)
row,Compound,Kd
1,CCOc1cc2ncc(C#N)c(Nc3ccc(F)c(Cl)c3)c2cc1NC(=O)/C=C/CN(C)C [PELITINIB],7.1 µM
2,Oc1ccc(-c2nc(-c3ccncc3)c(-c3ccc(F)cc3)[nH]2)cc1 [SB-202190],> 10 µM
3,COCC(=O)NC/C=C/c1ccc2ncnc(Nc3ccc(Oc4ccc(C)nc4)c(C)c3)c2c1 [CP-724714],> 10 µM
4,NC(=O)c1ccc(-c2nc(-c3ccc4c(c3)OCO4)c(-c3ccccn3)[nH]2)cc1 [SB-431542],> 10 µM

# Molecular target: Tyrosine-protein kinase JAK1 (Homo sapiens, UniProt P23458)
row,Compound,Kd
1,CCOc1cc2ncc(C#N)c(Nc3ccc(F)c(Cl)c3)c2cc1NC(=O)/C=C/CN(C)C [PELITINIB],> 10 µM
2,Oc1ccc(-c2nc(-c3ccncc3)c(-c3ccc(F)cc3)[nH]2)cc1 [SB-202190],> 10 µM
3,COCC(=O)NC/C=C/c1ccc2ncnc(Nc3ccc(Oc4ccc(C)nc4)c(C)c3)c2c1 [CP-724714],> 10 µM
4,NC(=O)c1ccc(-c2nc(-c3ccc4c(c3)OCO4)c(-c3ccccn3)[nH]2)cc1 [SB-431542],> 10 µM
